In US10028961B2, “Therapeutically active compounds and their methods of use” (AGIOS PHARMACEUTICALS, INC., priority 2013, dated 2018) one finds IC50 data, which are given here for 22 compounds.

Each structure is given as a SMILES string. Like-named read-outs stand apart in the source and are kept apart here. Bounds are passed on as bounds.

Experiment [1] addresses IDH1 wt/IDH1 R132H heterodimer (Homo sapiens (Human), UniProt O75874, R132H). The experiment can be described thus: In vitro assay for IDH1m R132H inhibitors, IDH1 wt/IDH1 R132H heterodimer, NADPH depletion (diaphorase/resazurin). In kind it is biochemical. The gist of the method: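 Read-out is NADPH left after α-KG reduction to 2-HG, measured via resorufin fluorescence after 5 min diaphorase/resazurin step at 25° C. Enzyme is sf9-expressed IDH1wt-his/IDH1R132H-flag heterodimer, pre-incubated 1 hr at room temperature with compound and cofactor. IC50s from DMSO stocks diluted 1:50.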

Experiment [2] addresses IDH1-R132H homodimer enzyme (Homo sapiens (Human), UniProt O75874, R132H). Description: In vitro assay IDH1-R132H homodimer, NADPH depletion assay with NADPH/NADP preincubation. Particulars: 5 μM NADPH and 37.5 μM NADP. Type of experiment: biochemical. The method, then: The following describes the experimental procedures that can be used to obtain data on columns 3 and 5 of Table 5.
A test compound is prepared as 10 mM stock in DMSO and diluted to 50× final concentration in DMSO, for a 50 μl reaction mixture. IDH enzyme activity converting alpha-ketoglutarate to 2-hydroxyglutaric acid is measured using a NADPH depletion assay. In the assay the remaining cofactor is measured at the end of the reaction with the addition of a catalytic excess of diaphorase and resazurin, to generate a fluorescent signal in proportion to the amount of NADPH remaining. […] The reaction is started with the addition of 10 μl of Substrate Mix ([…], 5 mM alpha-ketoglutarate, in Assay Buffer) and the mixture is incubated for 60 minutes at room temperature.

The target of experiment [3] is IDH2 R140Q (Homo sapiens (Human), UniProt P48735, R140Q). The experiment can be described thus: In vitro assay for IDH2m R140Q inhibitors, cofactor depletion assay. Type of experiment: biochemical. Particulars: IDH2 R140Q enzyme. The method, boiled down:
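Remaining cofactor measured fluorimetrically: diaphorase/resazurin Stop Mix […], halting the reaction. Before that, mutant enzyme and compound sat 1 h at RT, then substrate mix (4 μM NADPH, 1.6 mM α-KG) was added for 16 h at RT.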

The test system of experiment [4] is HT1080 cells. Description: Cellular assay for IDH1m R132C inhibitors, 2-HG by LC-MS in HT1080 cells. In kind it is cell-based. Particulars: Homo sapiens, HT-1080. The procedure: The following describes the experimental procedures that can be used to obtain data on column 5 of Table 4.
Cells (HT1080 or U87MG) are grown in T125 flasks in DMEM containing 10% FBS, 1× penicillin/streptomycin and 500 ug/mL G418 (present in U87MG cells only). They are harvested by trypsin and seeded into 96 well white bottom plates at a density of 5000 cell/well in 100 ul/well in DMEM with 10% FBS. No cells are placed in columns 1 and 12. Cells are incubated overnight at 37° C. in 5% CO2. The next day test compounds are made up at 2× the final concentration and 100 ul are added to each cell well. The final concentration of DMSO is 0.2% and the DMSO control wells are plated in row G. The plates are then placed in the incubator for 48 hours. At 48 hours, 100 ul of media is removed from each well and analyzed by LC-MS for 2-HG concentrations. The cell plate is placed back in the incubator for another 24 hours. At 72 hours post compound addition, 10 mL/plate of Promega Cell Titer Glo reagent is thawed and mixed. The cell plate is removed from the incubator and allowed to equilibrate to room temperature. Then 100 ul of Promega Cell Titer Glo reagent is added to each well of media. The cell plate is then placed on an orbital shaker for 10 minutes and then allowed to sit at room temperature for 20 minutes. The plate is then read for luminescence with an integration time of 500 ms.
HT1080 cells are maintained in RPMI containing 10% FBS, 1× penicillin/streptomycin. […] The next day compounds are prepared in 100% DMSO and then diluted in media for a final concentration of 0.2% DMSO. Media is removed from the cell plates and 200 μL of the compound dilutions are added to each well. […] The cell plates are then allowed to incubate another 24 hours.

For experiment [5], the system named is U87MG pLVX-IDH2 R140Q-neo cells. The experiment can be described thus: U87MG pLVX-IDH2 R140Q-neo cell based assay, 2-HG by LC-MS. Particulars: Homo sapiens, U-87 MG.
Experiment [6] concerns Neurosphere cells (TS603). The experiment can be described thus: Cellular assay for IDH1m R132H inhibitors, 2-HG by LC-MS in neurosphere cells (TS603). Type of experiment: cell-based. Particulars: 2-HG in media at 48 hours. The method, boiled down: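 TS603 neurosphere cells in NeuroCult medium were dosed with compound (0.25% DMSO final) at 37 C, 5% CO2. After 48 hours, medium 2-HG was measured by LC-MS. At 72 hours, viability was read by CellTiter-Glo luminescence.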

Setting [7] is: IDH1 wt/R132H heterodimer, NADPH/NADP, not saturated, read-out: IDH1 wt/R132H NADPH/NADP IC50 not saturated.
[8] abbreviates: IDH1 wt/IDH1 R132H heterodimer, 300 μM NADP (saturated), read-out: IDH1 wt/R132H NADPH/NADP IC50 saturated.

IDH1 wt/IDH1 R132H heterodimer, sequence (O75874 whole entry R132H): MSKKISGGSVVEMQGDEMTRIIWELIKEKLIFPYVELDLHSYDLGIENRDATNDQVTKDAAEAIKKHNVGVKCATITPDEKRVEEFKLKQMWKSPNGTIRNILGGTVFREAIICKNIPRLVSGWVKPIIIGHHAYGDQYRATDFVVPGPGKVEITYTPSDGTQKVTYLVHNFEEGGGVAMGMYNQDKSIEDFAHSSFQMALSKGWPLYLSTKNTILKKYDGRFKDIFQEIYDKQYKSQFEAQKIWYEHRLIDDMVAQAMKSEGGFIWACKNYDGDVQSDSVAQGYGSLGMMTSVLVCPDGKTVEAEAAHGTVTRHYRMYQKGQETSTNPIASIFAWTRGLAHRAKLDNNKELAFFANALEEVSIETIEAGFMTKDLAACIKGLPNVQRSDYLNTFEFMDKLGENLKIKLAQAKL
IDH1 wt/IDH1 R132H heterodimer, sequence (O75874 whole entry, stated change not applied): as the sequence (O75874 whole entry R132H) above, with H132R counted along it
IDH1-R132H homodimer enzyme, sequence (O75874 whole entry R132H): as the sequence (O75874 whole entry R132H) above
IDH2 R140Q, sequence (P48735 40-452 R140Q): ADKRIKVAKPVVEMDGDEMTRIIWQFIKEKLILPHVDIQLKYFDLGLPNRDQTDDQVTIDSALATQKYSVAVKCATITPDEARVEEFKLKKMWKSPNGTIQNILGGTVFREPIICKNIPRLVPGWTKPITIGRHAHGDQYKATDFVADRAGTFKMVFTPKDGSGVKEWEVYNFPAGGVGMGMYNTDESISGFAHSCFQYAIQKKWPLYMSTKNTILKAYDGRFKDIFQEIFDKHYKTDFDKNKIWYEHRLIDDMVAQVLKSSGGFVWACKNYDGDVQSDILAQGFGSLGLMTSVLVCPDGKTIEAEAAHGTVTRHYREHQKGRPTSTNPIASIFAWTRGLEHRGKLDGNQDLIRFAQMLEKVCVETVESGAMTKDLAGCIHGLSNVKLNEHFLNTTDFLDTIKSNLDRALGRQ

As for `CC(F)(F)c1nc(-c2nc(NC3CC(F)(F)C3)nc(NC3CC(F)(F)C3)n2)cs1` [Compound 209], the IC50 in experiment [1] (setting [7]) is under 50 nM; in experiment [2], 100 to 1000 nM; in experiment [3], under 50 nM; in experiment [4], 100 to 1000 nM; in experiment [5] it was under 50 nM; in experiment [6], under 50 nM.
On to `FC1(F)CCC(Nc2nc(Nc3ccnc(-c4ccccc4)c3)nc(-c3cccc(C(F)(F)F)n3)n2)C1` (centres unmarked) [Compound 202], for which the IC50 in experiment [1] (setting [7]) was under 50 nM; in experiment [2], 100 to 1000 nM; in experiment [3] it was under 50 nM; in experiment [4], 100 to 1000 nM; in experiment [5], under 50 nM; in experiment [6] it was under 50 nM.
As for `CC[C@@H](Nc1nc(N[C@H](CC)C(F)(F)F)nc(-c2cccc(Cl)n2)n1)C(F)(F)F` [Compound 104], the IC50 in experiment [1] (setting [7]), in experiment [2], in experiment [3], in experiment [4] and in experiment [5] was under 50 nM each time.
`CC(F)(F)c1cccc(-c2nc(Nc3ccnc(C4(C#N)CC4)c3)nc(NC3CCC(F)(F)CC3)n2)n1` [Compound 211]: the IC50 in experiment [1] (setting [7]) was under 50 nM; in experiment [2] it was 100 to 1000 nM; in experiment [3], under 50 nM; in experiment [4] it was 100 to 1000 nM; in experiment [5] it was under 50 nM; in experiment [6], under 50 nM.
In the case of `FC1(F)CC(CNc2nc(NCC3CC(F)(F)C3)nc(-c3cccc(C(F)(F)F)n3)n2)C1` [Compound 216], the IC50 in experiment [1] (setting [7]) was under 50 nM; in experiment [2], 100 to 1000 nM; in experiment [3], under 50 nM; in experiment [4] it was 100 to 1000 nM; in experiment [5], under 50 nM; in experiment [6] it was under 50 nM.
With `CC[C@H](Nc1nc(N[C@H](CC)C(F)(F)F)nc(-c2cccc(Cl)n2)n1)C(F)(F)F` [Compound 196], the IC50 in experiment [1] (setting [7]) was under 50 nM; in experiment [2] it was under 50 nM; in experiment [3] it was 50 to 100 nM; in experiment [4], 50 to 100 nM; in experiment [5], 100 to 1000 nM; in experiment [6] it was under 50 nM.
As to `N#Cc1cc(F)cc(Nc2nc(NCC3CC3)nc(-c3cccc(C(F)(F)F)n3)n2)c1` [Compound 175], the IC50 was under 50 nM in experiment [1] (setting [7]); 50 to 100 nM in experiment [2]; under 50 nM in experiment [3]; 100 to 1000 nM in experiment [4]; under 50 nM in experiment [5]; under 50 nM in experiment [6].
On to `Fc1cc(F)cc(Nc2nc(NC3CC(F)(F)C3)nc(-c3nc(C(F)(F)F)cs3)n2)c1` [Compound 413], for which the IC50 in experiment [1] (setting [8]) was under 50 nM; in experiment [2], under 50 nM; in experiment [4] it was 100 to 1000 nM; in experiment [5] it was under 50 nM.
With `FC1(F)CC(Nc2nc(Nc3ccnc(C(F)(F)F)c3)nc(-n3ccc(C(F)(F)F)n3)n2)C1` [Compound 197], the IC50 in experiment [1] (setting [7]) was under 50 nM; in experiment [2] it was 100 to 1000 nM; in experiment [3], under 50 nM; in experiment [4] it was 100 to 1000 nM; in experiment [5], under 50 nM; in experiment [6] it was under 50 nM.
For the compound `N#Cc1cc(F)cc(Nc2nc(NC3CC(F)(F)C3)nc(-c3cccc(C(F)(F)F)n3)n2)c1` [Compound 154], the IC50 in experiment [1] (setting [7]) is under 50 nM; in experiment [2], under 50 nM; in experiment [3] it was under 50 nM; in experiment [4] it was 100 to 1000 nM; in experiment [5] it was under 50 nM; in experiment [6], under 50 nM.
In the case of `CC(F)(F)c1nc(-c2nc(NC3CCC(F)(F)C3)nc(NC3CCC(F)(F)C3)n2)cs1` (centres unmarked) [Compound 155], the IC50 in experiment [1] (setting [7]) was under 50 nM; in experiment [2] it was under 50 nM; in experiment [3], under 50 nM; in experiment [4], 50 to 100 nM; in experiment [5], under 50 nM; in experiment [6] it was under 50 nM.
Turning to `Nc1ccc(F)c(-c2nc(Nc3cc(F)cc(F)c3)nc(NC3CCC(F)(F)CC3)n2)n1` [Compound 165], the IC50 was under 50 nM in experiment [1] (setting [7]); 50 to 100 nM in experiment [2]; under 50 nM in experiment [3]; 100 to 1000 nM in experiment [4]; under 50 nM in experiment [5]; under 50 nM in experiment [6].
As to `FC1(F)CCC(Nc2nc(Nc3ccnc(-c4ccccc4)c3)nc(-c3cccc(C(F)(F)F)n3)n2)CC1` [Compound 220], the IC50 in experiment [1] (setting [7]) was under 50 nM; in experiment [2] it was 50 to 100 nM; in experiment [3] it was 50 to 100 nM; in experiment [4], 100 to 1000 nM; in experiment [5], 50 to 100 nM; in experiment [6], under 50 nM.
`O=C1C[C@H](Nc2nc(NC3CCC(F)(F)C3)nc(-c3cccc(C(F)(F)F)n3)n2)CN1c1ccccn1` (some centres unmarked) [Compound 239]: the IC50 in experiment [1] (setting [7]) is under 50 nM; in experiment [2] it was 100 to 1000 nM; in experiment [4] it was 100 to 1000 nM; in experiment [6] it was under 50 nM.
As to `CC(C)(O)CNc1nc(NC2CCC(F)(F)CC2)nc(-c2cccc(C(F)(F)F)n2)n1` [Compound 287], the IC50 in experiment [1] (setting [7]) was 100 to 1000 nM; in experiment [2], over 1000 nM; in experiment [3], 100 to 1000 nM; in experiment [4] it was over 1000 nM; in experiment [5] it was 100 to 1000 nM.
On to `CC(C)(O)CNc1nc(NC2CCC(F)(F)C2)nc(-c2cccc(C(F)(F)F)n2)n1` (centres unmarked) [Compound 264], for which the IC50 in experiment [1] (setting [7]) lay within 100 to 1000 nM; in experiment [2], 100 to 1000 nM; in experiment [4], 100 to 1000 nM; in experiment [6] it was 50 to 100 nM.
Regarding `CC(C)(O)CNc1nc(Nc2cc(F)cc(Cl)c2)nc(-c2cccc(C(C)(F)F)n2)n1` [Compound 236], the IC50 in experiment [1] (setting [7]) is under 50 nM; in experiment [2], 100 to 1000 nM; in experiment [3], under 50 nM; in experiment [4] it was over 1000 nM; in experiment [5] it was under 50 nM.
Turning to `FC1(F)CCC(Nc2nc(NC3CN(c4ccccn4)C3)nc(-c3cccc(C(F)(F)F)n3)n2)C1` (centres unmarked) [Compound 238], the IC50 in experiment [1] (setting [7]) was under 50 nM; in experiment [2] it was 100 to 1000 nM; in experiment [4] it was 100 to 1000 nM; in experiment [6], under 50 nM.
Consider `C[C@@H](Nc1nc(NC(C(F)(F)F)C(F)(F)F)nc(-c2cccc(Cl)n2)n1)C(F)(F)F` [Compound 100], for which the IC50 in experiment [1] (setting [7]), in experiment [2], in experiment [3], in experiment [4] and in experiment [6] was under 50 nM in each case.
As for `FC1(F)CCC(Nc2nc(NC3CN(c4cccnc4)C3)nc(-c3cccc(C(F)(F)F)n3)n2)C1` (centres unmarked) [Compound 243], the IC50 was 50 to 100 nM in experiment [1] (setting [7]), over 1000 nM in experiment [2], 100 to 1000 nM in experiment [4] and under 50 nM in experiment [6].
In the case of `Nc1ccc(F)c(-c2nc(Nc3cc(F)cc(F)c3)nc(NC3CCC(F)(F)C3)n2)n1` (centres unmarked) [Compound 153], the IC50 in experiment [1] (setting [7]) is under 50 nM; in experiment [2], under 50 nM; in experiment [3] it was under 50 nM; in experiment [4], 50 to 100 nM; in experiment [5], under 50 nM.
As to `FC(F)c1cncc(-c2nc(NC3CC(F)(F)C3)nc(NC3CC(F)(F)C3)n2)n1` [Compound 409], the IC50 in experiment [1] (setting [8]), in experiment [3], in experiment [4], in experiment [5] and in experiment [6] was under 50 nM throughout.
